# Experimental data as given in patent US20260048047A1, “SMALL-MOLECULE ACTIVATORS OF MYCOBACTERIUM TUBERCULOSIS ADENYLYL CYCLASE” (priority 2022, published 2026).
# Experiments:
# Solubility at pH 6.8 = conditions: pH 6.8, aqueous buffer
# Extraction ratio, mouse = conditions: Table S2
# hERG = hERG (Homo sapiens, UniProt Q12809); experiment: in vitro; assay type: biochemical; conditions: Table S2
# Extraction ratio, human = conditions: Table S2
# [1] = Mouse plasma protein binding
# hERG, sequence (Q12809 whole entry): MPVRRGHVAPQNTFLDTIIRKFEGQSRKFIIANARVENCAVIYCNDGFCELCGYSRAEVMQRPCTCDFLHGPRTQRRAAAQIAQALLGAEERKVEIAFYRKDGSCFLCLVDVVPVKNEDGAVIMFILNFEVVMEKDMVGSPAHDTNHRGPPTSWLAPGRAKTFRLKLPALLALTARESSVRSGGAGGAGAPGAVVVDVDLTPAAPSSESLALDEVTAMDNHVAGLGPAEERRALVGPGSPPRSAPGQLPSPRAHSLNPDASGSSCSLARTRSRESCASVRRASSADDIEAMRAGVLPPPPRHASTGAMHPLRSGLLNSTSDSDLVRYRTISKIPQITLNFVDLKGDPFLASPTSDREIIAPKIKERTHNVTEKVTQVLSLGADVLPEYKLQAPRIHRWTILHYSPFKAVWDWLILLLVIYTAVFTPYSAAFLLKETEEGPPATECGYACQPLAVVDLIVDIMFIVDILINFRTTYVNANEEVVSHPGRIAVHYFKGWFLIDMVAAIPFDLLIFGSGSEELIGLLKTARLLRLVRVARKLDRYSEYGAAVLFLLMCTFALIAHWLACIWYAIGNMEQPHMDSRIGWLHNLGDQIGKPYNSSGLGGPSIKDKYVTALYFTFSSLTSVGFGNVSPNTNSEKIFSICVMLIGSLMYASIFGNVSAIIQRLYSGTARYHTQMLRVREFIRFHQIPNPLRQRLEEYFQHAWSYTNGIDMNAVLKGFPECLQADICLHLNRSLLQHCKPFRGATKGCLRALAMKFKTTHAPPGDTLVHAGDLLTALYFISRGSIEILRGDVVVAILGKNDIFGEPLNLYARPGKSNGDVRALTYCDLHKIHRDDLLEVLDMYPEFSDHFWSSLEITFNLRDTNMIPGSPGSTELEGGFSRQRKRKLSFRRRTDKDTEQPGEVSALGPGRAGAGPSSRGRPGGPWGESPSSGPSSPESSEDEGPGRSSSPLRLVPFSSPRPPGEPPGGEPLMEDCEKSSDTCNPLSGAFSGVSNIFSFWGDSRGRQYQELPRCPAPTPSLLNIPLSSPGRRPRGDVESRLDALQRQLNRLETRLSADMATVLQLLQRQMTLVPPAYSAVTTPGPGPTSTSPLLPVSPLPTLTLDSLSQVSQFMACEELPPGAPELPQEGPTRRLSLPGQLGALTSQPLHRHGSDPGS
smiles,measurement,setting,value
Cn1ncnc1CC(=O)N1[C@@H]2CC(c3nc(-c4ccc(Cl)c(Cl)c4)no3)C[C@H]1C2 (stereo partly drawn) [drawing 4],fraction unbound,Caseum binding,< 0.0001
same,solubility,Solubility at pH 6.8,94 µM
same,ER mouse/human: mouse,"Extraction ratio, mouse",<0.3/<0.3
same,IC50,hERG,11.8 µM
same,ER mouse/human: human,"Extraction ratio, human",<0.3/<0.3
same,fraction unbound,[1],0.022
